According to paper PMC6332183, “α-Glucosidase Inhibitors from Vauquelinia corymbosa” (Molecules, 2015):
Like-named read-outs stand apart in the source and are kept apart here. Marks after values point to notes of the source that are not given here.

How the values were obtained:
yeast α-glucosidase [1] = molecular target: T1, yeast α-glucosidase (Saccharomyces cerevisiae, UniProt P53341); experiment: yeast α-glucosidase inhibitory assay (pNPG, spectrophotocolorimetric); type: biochemical
Experimental: (§1) Aliquots of 0–10 μL of testing materials (triplicated) were incubated for 10 min with 20 μL of an enzyme solution of yeast α-glucosidase (Sigma-Aldrich, 0.4 units/mL in PBS) or mammalian α-glucosidase (Sigma-Aldrich, 40 mg). The mammalian enzyme was separated from rat intestinal acetone powder, which was hand homogenized using 1 mL of ice-cold PBS. After sonicating during ten min, the content was centrifuged at 6400 rpm for 10 min (Microfuge Qualitron, Inc., Albany, NY, USA). The supernatant was recovered and used for the in vitro assay.
(§2) After incubation with the enzymes 10 μL of p-nitrophenyl α-D-glucopyranoside (pNPG 5 mM and 10 mM in PSB, respectively) were added and then incubated for 20 min at 37 °C. Then, absorbances were determined in a BIO-RAD microplate reader model 680 at 405 nm.

[2] = system: rat small intestinal α-glucosidases; experiment: rat small intestinal α-glucosidase inhibitory assay (pNPG); type: biochemical
Experimental: as §1, §2

yeast α-glucosidase [3] = molecular target: T1, yeast α-glucosidase; experiment: kinetic analysis (Lineweaver-Burk) with yeast α-glucosidase; type: biochemical; conditions: Lineweaver-Burk plot
Experimental: (§3) The mode of inhibition was determined by the Lineweaver-Burk plots. The inhibition constants were calculated using the following equation [36]: (2) v=Vmax×S/Km(1+[I]/Ki)+S(1+[I]/αKi) where v is the initial velocity in absence and presence of inhibitor; S and I are concentration of substrate and inhibitor, respectively; Vmax is the maximum velocity; Km is the Michaellis-Menten constant; Ki is the competitive inhibition constant and αKi is the uncompetitive inhibition constant. The kinetic data was analyzed using a computer program for nonlinear regressions (Graph Pad Prism 5.0, GraphPad Software, Inc., La Jolla, CA, USA).

[4] = system: small intestinal rat α-glucosidase; experiment: kinetic analysis (Lineweaver-Burk) with small intestinal rat α-glucosidase
Experimental: as §3

[5] = system: rat small intestinal α-glucosidases; parameters: method as in doi:10.1016/j.fshw.2014.11.003; conditions: values taken from reference; ref [22]; cited from earlier work
[6] = mean ± SD of triplicate experiments, read-out: Rat Small Intestinal IC50

T1 sequence (P53341 whole entry): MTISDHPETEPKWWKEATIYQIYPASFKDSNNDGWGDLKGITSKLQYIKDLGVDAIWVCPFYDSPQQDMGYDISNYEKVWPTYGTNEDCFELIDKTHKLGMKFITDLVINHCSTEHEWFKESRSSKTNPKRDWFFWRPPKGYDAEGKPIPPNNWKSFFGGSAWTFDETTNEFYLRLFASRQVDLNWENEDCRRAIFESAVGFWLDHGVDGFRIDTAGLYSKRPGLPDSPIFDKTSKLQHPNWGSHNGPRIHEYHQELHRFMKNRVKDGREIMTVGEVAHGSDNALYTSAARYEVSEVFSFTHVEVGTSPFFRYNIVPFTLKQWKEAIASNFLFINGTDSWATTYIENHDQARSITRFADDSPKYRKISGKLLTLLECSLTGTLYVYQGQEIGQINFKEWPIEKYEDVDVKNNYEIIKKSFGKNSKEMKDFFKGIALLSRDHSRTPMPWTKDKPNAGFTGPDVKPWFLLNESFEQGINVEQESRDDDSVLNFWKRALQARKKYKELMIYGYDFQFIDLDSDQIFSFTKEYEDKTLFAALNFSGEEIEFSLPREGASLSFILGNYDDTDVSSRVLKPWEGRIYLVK

Rat Small Intestinal Maximum Inhibition (%) [2] [%]	IC50 [2, 6] [µM]	Rat Small Intestinal % Inhibition obtained with 10.0 mM of inhibitor [2]	Compound	also measured
–	–	15.2 ^d %	Oc1cc(O)c2c(c1)O[C@@H](c1ccc(O)c(O)c1)[C@@H](O)C2 [Compound 2, (−)-epi-catechin]	–
65.1	1980 ± 150	–	O=c1c(O[C@@H]2O[C@H](CO)[C@H](O)[C@H](O)[C@H]2O)c(-c2ccc(O)c(O)c2)oc2cc(O)cc(O)c12 [Compound 3, hyperoside]	–
71.0	1630 ± 110	–	O=c1c(O[C@@H]2O[C@H](CO)[C@@H](O)[C@H](O)[C@H]2O)c(-c2ccc(O)c(O)c2)oc2cc(O)cc(O)c12 [Compound 4, isoquercetin]	–
75.8	430 ± 30	–	O=C(OC[C@H]1O[C@@H](Oc2c(-c3ccc(O)c(O)c3)oc3cc(O)cc(O)c3c2=O)[C@H](O)[C@@H](O)[C@H]1O)c1ccccc1 [Compound 6, quercetin-3-O-(6′′-benzoyl)-β-galactoside]	IC50 ([2]; read-out: IC50, mammalian enzyme): 437 µM; mode of inhibition, yeast α-glucosidase (yeast α-glucosidase [3]): mixed-type inhibitor; mode of inhibition, rat α-glucosidase ([4]; Lineweaver-Burk plot): mixed-type inhibitor; Ki ([4]; read-out: inhibition constant Ki, rat enzyme (abstract), mixed-type inhibition): 212 µM
52.6	10700 ± 960	–	CC(=O)c1ccc(O[C@@H]2O[C@H](CO)[C@@H](O)[C@H](O)[C@H]2O)cc1 [Compound 7, picein]	–
–	–	39.3 ^d %	COc1ccc(O[C@@H]2O[C@H](CO)[C@@H](O)[C@H](O)[C@H]2O)cc1 [Compound 8, methylarbutin]	–
–	–	–	O=c1c(O)c(-c2ccc(O)c(O)c2)oc2cc(O)cc(O)c12 [Compound 9, quercetin]	IC50 [5]: 216 µM

Compound	Rat Small Intestinal Maximum Inhibition (%) [2] [%]	IC50 [2, 6] [µM]	Rat Small Intestinal % Inhibition obtained with 10.0 mM of inhibitor [2]	also measured
C[C@H]1O[C@H](O[C@H]2[C@H](O)[C@@H](O)[C@@H](O[C@H]3[C@H](O)[C@@H](O)C(O)O[C@@H]3CO)O[C@@H]2CO)[C@H](O)[C@@H](O)[C@@H]1N[C@H]1C=C(CO)[C@@H](O)[C@H](O)[C@H]1O (stereo partly shown) [Acarbose, acarbose, reference compound]	80.2	100 ± 3	–	Yeast Maximum Inhibition (%) (yeast α-glucosidase [1]): 89.7%
N#C[C@H](O[C@@H]1O[C@H](CO)[C@@H](O)[C@H](O)[C@H]1O)c1ccccc1 [Compound 1, prunasin]	–	–	44.5 ^d %	–
quercitrin [Compound 5]	59.7	3340 ± 380	–	Yeast Maximum Inhibition (%) (yeast α-glucosidase [1]): 45.0%
